Data reported in US20240114939A1, “HYDROXY- AND METHOXY-SUBSTITUTED FLAVONES AND THEIR USE” (Firmenich SA, priority 2021, published 2024).

Tests used:
human sensory panel [1] = assay: Human sensory panel, sweet taste versus reference water solution containing 4% sucrose; type: in vivo; conditions: 20 trained panelists, scale −5 (strong masking) to 5 (strong enhancing), 0 = reference water solution containing 4% sucrose
Text: (§1) Certain HMF compounds were tasted by a human sensory panel to assess their ability to reduce bitterness, reduce astringency, and enhance sweetness. The panel consisted of 20 trained panelists evaluating the samples at 1 ppm, 5 ppm, or 10 ppm for taste properties (sweet, bitter, or astringent) on a scale of −5 to 5 (−5 denoted strong masking effect and 5 denoted strong enhancing effect, 0 being the intensity of a reference water solution containing 4% sucrose or 10 ppm mixture of Limonin, Naringin and Nomilin) The results are set forth in Table 2. The composition numberings (“Cpn”) are set forth above in Example 1.

human sensory panel [2] = assay: Human sensory panel, bitter and astringent taste versus reference water solution with 10 ppm mixture of Limonin, Naringin and Nomilin; type: in vivo; conditions: 20 trained panelists, scale −5 (strong masking) to 5 (strong enhancing); for Astringency: 0 = reference water solution; for Bitterness: 0 = reference water solution with 10 ppm mixture of Limonin, Naringin and Nomilin
Text: as §1

panel of 8 experts = assay: Expert panel, bitter and astringent taste in coffee; type: in vivo, human; conditions: 10 ppm, scale −5 (strong masking) to 5 (strong enhancing), 0 = reference application in coffee
Text: A panel consisted in 8 experts evaluating the samples at 10 ppm for taste properties (bitter and astringent) on a scale of −5 to 5 (−5 denoted strong masking effect and 5 denoted strong enhancing effect, 0 being the intensity of a reference application in coffee).

With `COc1ccc(-c2cc(=O)c3c(OC)c(OC)c(OC)cc3o2)cc1O` [Cpd 107, 3′-hydroxy-5,6,7,4′-tetramethoxyflavone] the Sweetness (human sensory panel [1]; 1 ppm) was 0.50, the Astringency (human sensory panel [2]; 1 ppm) was 0.00 and the Bitterness (human sensory panel [2]; 1 ppm) was 0.08.
With `COc1cc(-c2cc(=O)c3c(OC)c(OC)c(OC)c(OC)c3o2)ccc1O` [Cpd 103, 4′-hydroxy-5,6,7,8,3′-pentamethoxyflavone] the Sweetness (human sensory panel [1]; 10 ppm) was 0.17, the Astringency (human sensory panel [2]; 10 ppm) was −0.67 and the Bitterness (human sensory panel [2]; 10 ppm) was −1.17.
In the case of `COc1cc(-c2cc(=O)c3c(OC)c(OC)c(OC)cc3o2)ccc1O` [Cpd 101, 4′-hydroxy-5,6,7,3′-tetramethoxyflavone], the Sweetness (human sensory panel [1]; 10 ppm) is reported as 0.58, the Astringency (human sensory panel [2]; 10 ppm) is reported as −0.92 and the Bitterness (human sensory panel [2]; 10 ppm) is reported as −0.92.
Molecule `COc1ccc(-c2cc(=O)c3c(OC)c(OC)c(OC)c(OC)c3o2)cc1O` [Cpd 109, 3′-hydroxy-5,6,7,8,4′-pentamethoxyflavone] has a Sweetness (human sensory panel [1]; 10 ppm) of 0.03, an Astringency (panel of 8 experts) of 0.60 and a Bitterness (panel of 8 experts) of −1.80. For the same molecule, the Astringency (human sensory panel [2]; 10 ppm) was −1.80 and the Bitterness (human sensory panel [2]; 10 ppm) was −3.51.
`COc1cc2oc(-c3ccc(O)cc3)cc(=O)c2c(OC)c1OC` [Cpd 104, 4′-Hydroxy-5,6,7-trimethoxyflavone] showed a Sweetness (human sensory panel [1]; 10 ppm) of 0.08, an Astringency (human sensory panel [2]; 10 ppm) of −0.33 and a Bitterness (human sensory panel [2]; 10 ppm) of −1.00.
`COc1c(OC)c(OC)c2c(=O)cc(-c3ccc(O)cc3)oc2c1OC` [Cpd 106, 4′-hydroxy-5,6,7,8-tetramethoxyflavone] showed a Sweetness (human sensory panel [1]; 5 ppm) of 0.25, an Astringency (human sensory panel [2]; 5 ppm) of −0.30 and a Bitterness (human sensory panel [2]; 5 ppm) of −2.00.
